The source of these data is ChEMBL document CHEMBL2331373, “Synthesis and antitubercular activity of amino alcohol fused spirochromone conjugates” (2013).

In brackets after ≈: the same amount, converted by molar mass.

The test system of this assay is Mycobacterium tuberculosis. Briefly: Antimycobacterial activity against Mycobacterium tuberculosis H37Rv ATCC 27294 by agar dilution method. It is filed as functional.
For `Cc1ccccc1NCC(O)COc1ccc2c(c1)OC1(CCN(C(=O)OC(C)(C)C)CC1)CC2=O` (stereo not drawn), it took 25 µg/mL (≈ 50.3 µM) to inhibit growth (MIC).
The value for `O=C1CC2(CCCC2)Oc2cc(OCC(O)CNc3ccccc3Cl)ccc21` (stereo not drawn) was 6.25 µg/mL (≈ 15.6 µM); that for `O=C1CC2(CCCC2)Oc2cc(OCC(O)CNc3cccc(F)c3)ccc21` (stereo not drawn) was 3.13 µg/mL (≈ 8.12 µM); that for `CC(C)(C)OC(=O)N1CCC2(CC1)CC(=O)c1ccc(OCC(O)CNc3ccccc3)cc1O2` (stereo not drawn) was > 25 µg/mL.
The value for `COc1ccccc1NCC(O)COc1ccc2c(c1)OC1(CCCC1)CC2=O` (stereo not drawn) was 12.5 µg/mL (≈ 31.4 µM); that for `O=C1CC2(CCCC2)Oc2cc(OCC(O)CN3CCOCC3)ccc21` (stereo not drawn) was > 25 µg/mL; that for `COc1ccc(NCC(O)COc2ccc3c(c2)OC2(CCN(C(=O)OC(C)(C)C)CC2)CC3=O)cc1` (stereo not drawn) was > 25 µg/mL.
With `CC(C)c1ccc(NCC(O)COc2ccc3c(c2)OC2(CCCCC2)CC3=O)cc1` (stereo not drawn), the MIC came to 6.25 µg/mL (≈ 14.8 µM).
The value for `COc1ccc(NCC(O)COc2ccc3c(c2)OC2(CCCCC2)CC3=O)cc1` (stereo not drawn) was 12.5 µg/mL (≈ 30.4 µM); that for `COc1ccccc1NCC(O)COc1ccc2c(c1)OC1(CCN(C(=O)OC(C)(C)C)CC1)CC2=O` (stereo not drawn) was 25 µg/mL (≈ 48.8 µM); that for `CO[C@H]1/C=C/O[C@@]2(C)Oc3c(C)c(O)c4c(O)c(c(/C=N/N5CCN(C)CC5)c(O)c4c3C2=O)NC(=O)/C(C)=C\C=C\[C@H](C)[C@H](O)[C@@H](C)[C@@H](O)[C@@H](C)[C@H](OC(C)=O)[C@@H]1C` [RIFAMPIN] was 0.2 µg/mL (≈ 0.243 µM).
`Cc1ccccc1NCC(O)COc1ccc2c(c1)OC1(CCCC1)CC2=O` (stereo not drawn) registered an MIC of 12.5 µg/mL (≈ 32.8 µM).
The value for `O=C1CC2(CCCC2)Oc2cc(OCC(O)CNc3ccccc3)ccc21` (stereo not drawn) was 25 µg/mL (≈ 68 µM); that for `COc1ccc(NCC(O)COc2ccc3c(c2)OC2(CCCC2)CC3=O)cc1` (stereo not drawn) was 25 µg/mL (≈ 62.9 µM); that for `COc1ccc(CNCC(O)COc2ccc3c(c2)OC2(CCCC2)CC3=O)cc1` (stereo not drawn) was 12.5 µg/mL (≈ 30.4 µM).
Next, `CC[C@@H](CO)NCCN[C@@H](CC)CO` [ETHAMBUTOL]: 1.56 µg/mL (≈ 7.64 µM); `CC(C)c1ccc(NCC(O)COc2ccc3c(c2)OC2(CCCC2)CC3=O)cc1` (stereo not drawn): 6.25 µg/mL (≈ 15.3 µM).
`O=C1CC2(CCCC2)Oc2cc(OCC(O)CNc3ccc([N+](=O)[O-])cc3O)ccc21` (stereo not drawn) yielded an MIC of 6.25 µg/mL (≈ 14.6 µM).
The compound `COc1ccccc1NCC(O)COc1ccc2c(c1)OC1(CCCCC1)CC2=O` (stereo not drawn) had an MIC of 12.5 µg/mL (≈ 30.4 µM).
Next, `CC(C)c1ccc(NCC(O)COc2ccc3c(c2)OC2(CCN(C(=O)OC(C)(C)C)CC2)CC3=O)cc1` (stereo not drawn): 12.5 µg/mL (≈ 23.8 µM).
The value for `O=C1CC2(CCCCC2)Oc2cc(OCC(O)CNc3ccccc3)ccc21` (stereo not drawn) was 12.5 µg/mL (≈ 32.8 µM); that for `Cc1ccccc1NCC(O)COc1ccc2c(c1)OC1(CCCCC1)CC2=O` (stereo not drawn) was 6.25 µg/mL (≈ 15.8 µM); that for `CC(C)c1ccccc1NCC(O)COc1ccc2c(c1)OC1(CCCC1)CC2=O` (stereo not drawn) was 6.25 µg/mL (≈ 15.3 µM).
